Measured values published in US20250002487A1, “HETEROCYCLIC COMPOUNDS AND USES THEREOF” (Ventus Therapeutics U.S., Inc., priority 2021, published 2025).

What follows are compounds tested against human-cGAS (h-cGAS) (Homo sapiens, UniProt Q8N884) (assay: hcGAS Kinase-Glo Assay). Conditions: 40 nM h-cGAS, 100 μM ATP, 100 μM GTP, 25 nM dsDNA, 3 h incubation, read-out: hcGAS potency IC50.
Format: biochemical
Procedure: In some embodiments, the compounds of the instant disclosure may be tested for their human-cGAS (h-cGAS) inhibition activity using the methodology reported in Lama et al., “Development of human cGAS-specific small molecule inhibitors for repression of double stranded DNA (dsDNA)-triggered interferon expression”, Nature Communications 10, Article number: 2261 (2019), incorporated herein by reference. hcGAS Kinase-Glo Assay Compounds were tested for their human-cGAS (h-cGAS) inhibition activity using the methodology reported in Lama et al., “Development of human cGAS-specific small molecule inhibitors for repression of double stranded DNA (dsDNA)-triggered interferon expression”, Nature Communications 10. Article number: 2261 (2019), which is herein incorporated by reference in its entirety, with slight changes to some conditions as shown in Table B. The results of the assays, expressed in IC50 ranges are reported in Table C with the following designations: A represents an IC50 value <0.1 μM; B represents an IC50 value ≥0.1 μM and <0.5 μM; C represents an IC50 value ≥0.5 μM and <1.0 μM; D represents an IC50 value ≥1.0 μM. [table]

Sequence of human-cGAS (h-cGAS) (Q8N884 whole entry): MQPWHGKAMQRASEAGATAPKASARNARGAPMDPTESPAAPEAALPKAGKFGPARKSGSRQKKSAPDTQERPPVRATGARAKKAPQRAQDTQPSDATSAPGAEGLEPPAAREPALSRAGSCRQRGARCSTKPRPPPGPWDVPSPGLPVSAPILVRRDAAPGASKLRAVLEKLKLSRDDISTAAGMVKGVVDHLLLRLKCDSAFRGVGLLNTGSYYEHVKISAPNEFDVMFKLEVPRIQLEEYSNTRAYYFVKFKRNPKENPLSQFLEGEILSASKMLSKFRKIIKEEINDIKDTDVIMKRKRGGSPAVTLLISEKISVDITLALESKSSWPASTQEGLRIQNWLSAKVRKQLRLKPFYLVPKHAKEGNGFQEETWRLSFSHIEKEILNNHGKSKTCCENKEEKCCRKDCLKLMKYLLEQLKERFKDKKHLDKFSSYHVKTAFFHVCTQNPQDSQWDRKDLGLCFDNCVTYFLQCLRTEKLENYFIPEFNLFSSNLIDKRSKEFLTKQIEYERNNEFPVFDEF

Row | SMILES | IC50 [nM]
1 | CSc1nnc(NC(=O)c2cc(-c3ccsc3)no2)s1 [Compound 139, N-[5-(methylsulfanyl)-1,3,4-thiadiazol-2-yl]-3-(thiophen-3-yl)-1,2-oxazole-5-carboxamide] | 500 to 1000
2 | CSc1nnc(NC(=O)c2cc(-c3cccs3)no2)s1 [Compound 75, N-(5-(methylthio)-1,3,4-thiadiazol-2-yl)-3-(thiophen-2-yl)isoxazole-5-carboxamide] | 500 to 1000
3 | CC1(c2cc(C(=O)Nc3nnc(-c4ccccc4Cl)s3)on2)COC1 [Compound 41, N-(5-(2-chlorophenyl)-1,3,4-thiadiazol-2-yl)-3-(3-methyloxetan-3-yl)isoxazole-5-carboxamide] | 100 to 500
4 | CSc1nnc(NC(=O)c2cncc(-c3ccccn3)c2)s1 [Compound 72, N-(5-(methylthio)-1,3,4-thiadiazol-2-yl)-[2,3′-bipyridine]-5′-carboxamide] | ≥ 1000
5 | O=C(Nc1nnc(-c2ccccc2Cl)s1)c1onc2c1ccc1cccnc12 [Compound 7, N-(5-(2-chlorophenyl)-1,3,4-thiadiazol-2-yl)isoxazolo[4,3-h]quinoline-3-carboxamide] | < 100
6 | CSc1nnc(NC(=O)c2nnc(N3CCCCC3)o2)s1 [Compound 108, N-(5-(methylthio)-1,3,4-thiadiazol-2-yl)-5-(piperidin-1-yl)-1,3,4-oxadiazole-2-carboxamide] | 500 to 1000
7 | CSc1nnc(NC(=O)c2nc(-c3ccccc3)cs2)s1 [Compound 65, N-(5-(methylthio)-1,3,4-thiadiazol-2-yl)-4-phenylthiazole-2-carboxamide] | ≥ 1000
8 | CSc1nnc(NC(=O)c2nc(-c3cnccn3)no2)s1 [Compound 71, N-(5-(methylthio)-1,3,4-thiadiazol-2-yl)-3-(pyrazin-2-yl)-1,2,4-oxadiazole-5-carboxamide] | 500 to 1000
9 | CSc1nnc(NC(=O)c2cnc(-c3cccs3)s2)s1 [Compound 76, N-(5-(methylthio)-1,3,4-thiadiazol-2-yl)-2-(thiophen-2-yl)thiazole-5-carboxamide] | ≥ 1000
10 | O=C(NO)c1cc(C(=O)Nc2nnc(-c3ccccc3Cl)s2)on1 [Compound 90, N5-(5-(2-chlorophenyl)-1,3,4-thiadiazol-2-yl)-N3-hydroxyisoxazole-3,5-dicarboxamide] | 100 to 500
11 | CSc1nnc(NC(=O)c2cc(C(=O)O)no2)s1 [Compound 16, 5-((5-(methylthio)-1,3,4-thiadiazol-2-yl)carbamoyl)isoxazole-3-carboxylic acid] | 100 to 500
12 | CSc1nnc(NC(=O)c2nnn(-c3ccccc3)n2)s1 [Compound 66, N-(5-(methylthio)-1,3,4-thiadiazol-2-yl)-2-phenyl-2H-tetrazole-5-carboxamide] | 500 to 1000
13 | O=C(Nc1nnc(-c2ccccc2Cl)s1)c1cc(C(F)F)no1 [Compound 35, N-(5-(2-chlorophenyl)-1,3,4-thiadiazol-2-yl)-3-(difluoromethyl)isoxazole-5-carboxamide] | 500 to 1000
14 | O=C(Nc1nnc(-c2c(F)cccc2F)s1)c1onc2c1ccc1cccnc12 [Compound 8, N-(5-(2,6-difluorophenyl)-1,3,4-thiadiazol-2-yl)isoxazolo[4,3-h]quinoline-3-carboxamide] | 100 to 500
15 | CSc1nnc(NC(=O)c2nnc(N3CCC(C(=O)O)C3)o2)s1 (stereo not drawn) [Compound 112, 1-(5-{[5-(methylsulfanyl)-1,3,4-thiadiazol-2-yl]carbamoyl}-1,3,4-oxadiazol-2-yl)pyrrolidine-3-carboxylic acid] | 100 to 500
16 | O=C(Nc1nnc(-c2ccccc2Cl)s1)c1c[nH]c(=O)o1 [Compound 61, N-(5-(2-chlorophenyl)-1,3,4-thiadiazol-2-yl)-2-oxo-2,3-dihydrooxazole-5-carboxamide] | 100 to 500
17 | O=C(Nc1nnc(-c2ccccc2Cl)s1)c1onc2ccccc12 [Compound 22, N-(5-(2-chlorophenyl)-1,3,4-thiadiazol-2-yl)benzo[c]isoxazole-3-carboxamide] | 100 to 500
18 | O=C(Nc1nnc(-c2ccccc2C(F)F)s1)c1onc2ccccc12 [Compound 147, N-(5-(2-(difluoromethyl)phenyl)-1,3,4-thiadiazol-2-yl)benzo[c]isoxazole-3-carboxamide] | 500 to 1000
19 | CSc1nnc(NC(=O)c2cc(-c3cccc(OC(F)(F)F)c3)no2)s1 [Compound 83, N-(5-(methylthio)-1,3,4-thiadiazol-2-yl)-3-(3-(trifluoromethoxy)phenyl)isoxazole-5-carboxamide] | ≥ 1000
20 | COC(=O)c1cc(C(=O)Nc2nnc(-c3ccccc3Cl)s2)on1 [Compound 1, Methyl 5-((5-(2-chlorophenyl)-1,3,4-thiadiazol-2-yl)carbamoyl)isoxazole-3-carboxylate] | 100 to 500
21 | CSc1nnc(NC(=O)c2nnc(N3CCCC(C(=O)O)C3)o2)s1 (stereo not drawn) [Compound 110, 1-(5-{[5-(methylsulfanyl)-1,3,4-thiadiazol-2-yl]carbamoyl}-1,3,4-oxadiazol-2-yl)piperidine-3-carboxylic acid] | 500 to 1000
22 | Cc1nnc(NC(=O)c2onc3ccccc23)s1 [Compound 81, N-(5-methyl-1,3,4-thiadiazol-2-yl)benzo[c]isoxazole-3-carboxamide] | ≥ 1000
23 | CSc1nnc(NC(=O)c2cc(C3CCCCC3)no2)s1 [Compound 84, 3-cyclohexyl-N-(5-(methylthio)-1,3,4-thiadiazol-2-yl)isoxazole-5-carboxamide] | 100 to 500

Continued, values first:

Row | IC50 [nM] | SMILES
24 | 500 to 1000 | CSc1nnc(NC(=O)c2onc3ccc(F)cc23)s1 [Compound 223, 5-fluoro-N-[5-(methylsulfanyl)-1,3,4-thiadiazol-2-yl]-2,1-benzoxazole-3-carboxamide]
25 | 100 to 500 | CSc1nnc(NC(=O)c2cc(-c3ccc4ccncc4c3)cc(=O)o2)s1 [Compound 264, 4-(isoquinolin-7-yl)-N-(5-(methylthio)-1,3,4-thiadiazol-2-yl)-2-oxo-2H-pyran-6-carboxamide]
26 | 500 to 1000 | CSc1nnc(NC(=O)c2cc(-c3cncc4ccccc34)cc(=O)o2)s1 [Compound 256, 4-(4-isoquinolyl)-N-(5-methylsulfanyl-1,3,4-thiadiazol-2-yl)-6-oxo-pyran-2-carboxamide]
27 | 500 to 1000 | CSc1nnc(NC(=O)c2onc3ccc(Cc4ccc(O)cc4)cc23)s1 [Compound 188, 5-(4-hydroxybenzyl)-N-(5-(methylthio)-1,3,4-thiadiazol-2-yl)benzo[c]isoxazole-3-carboxamide]
28 | 500 to 1000 | CSc1nnc(NC(=O)c2onc3cc(CO)ccc23)s1 [Compound 194, 6-(hydroxymethyl)-N-(5-(methylthio)-1,3,4-thiadiazol-2-yl)benzo[c]isoxazole-3-carboxamide]
29 | 100 to 500 | CSc1nnc(NC(=O)c2cc(-c3ncccn3)no2)s1 [Compound 152, N-(5-(Methylthio)-1,3,4-thiadiazol-2-yl)-3-(pyrimidin-2-yl)isoxazole-5-carboxamide]
30 | 500 to 1000 | CSc1nnc(NC(=O)c2cc(-c3cccc(F)c3)no2)s1 [Compound 211, 3-(3-fluorophenyl)-N-[5-(methylsulfanyl)-1,3,4-thiadiazol-2-yl]-1,2-oxazole-5-carboxamide]
31 | 100 to 500 | CSc1nnc(NC(=O)c2cc(Nc3ccccc3)cc(=O)o2)s1 [Compound 268, N-(5-(methylthio)-1,3,4-thiadiazol-2-yl)-2-oxo-4-(phenylamino)-2H-pyran-6-carboxamide]
32 | 500 to 1000 | CSc1nnc(NC(=O)c2cc(-c3ccccc3-c3cccc(CC(=O)O)c3)cc(=O)o2)s1 [Compound 177, 2-(2′-(6-((5-(methylthio)-1,3,4-thiadiazol-2-yl)carbamoyl)-2-oxo-2H-pyran-4-yl)-[1,1′-biphenyl]-3-yl)acetic acid]
33 | 500 to 1000 | CSc1nnc(NC(=O)c2nnc(Cc3ccccc3)o2)s1 [Compound 259, 5-benzyl-N-(5-methylsulfanyl-1,3,4-thiadiazol-2-yl)-1,3,4-oxadiazole-2-carboxamide]
34 | 100 to 500 | COc1ccc(-c2cc(C(=O)Nc3nnc(SC)s3)oc(=O)c2)cc1 [Compound 252, 4-(4-methoxyphenyl)-N-(5-methylsulfanyl-1,3,4-thiadiazol-2-yl)-6-oxo-pyran-2-carboxamide]
35 | 500 to 1000 | CSc1nnc(NC(=O)c2cc(-c3nccc4ccccc34)no2)s1 [Compound 150, 3-(Isoquinolin-1-yl)-N-(5-(methylthio)-1,3,4-thiadiazol-2-yl)isoxazole-5-carboxamide]
36 | ≥ 1000 | COc1ccc2noc(C(=O)Nc3nnc(SC)s3)c2c1 [Compound 224, 5-methoxy-N-[5-(methylsulfanyl)-1,3,4-thiadiazol-2-yl]-2,1-benzoxazole-3-carboxamide]
37 | 100 to 500 | O=C(Nc1nnc(-c2ccccc2Cl)s1)c1cc(-c2ncc(F)cn2)no1 [Compound 156, N-(5-(2-Chlorophenyl)-1,3,4-thiadiazol-2-yl)-3-(5-fluoropyrimidin-2-yl)isoxazole-5-carboxamide]
38 | 500 to 1000 | CSc1nnc(NC(=O)c2cc(-c3cccc4ccncc34)cc(=O)o2)s1 [Compound 277, 4-(isoquinolin-8-yl)-N-(5-(methylthio)-1,3,4-thiadiazol-2-yl)-2-oxo-2H-pyran-6-carboxamide]
39 | 500 to 1000 | CSc1nnc(NC(=O)c2onc3c2ccc2ccncc23)s1 [Compound 279, N-(5-(methylthio)-1,3,4-thiadiazol-2-yl)isoxazolo[4,3-h]isoquinoline-3-carboxamide]
